From patent US20100240537A1, “Substituted 6-(alkylbenzylamino)purine derivatives for use as cytokinin receptor antagonists and preparations containing these derivatives” (priority 2007, published 2010)

Key:
Assay type in all cases: cell-based
[1] = system: cytokinin-dependent tobacco callus Nicotiana tabacum L. cv. Wisconsin 38; test: Cytokinin-dependent tobacco callus bioassay; conditions: for activity (%) [10^−6 mol · l^−1 BA = 100%]: at concentration with highest activity, n.a. means inactive; for concentration with highest activity: callus fresh weight after four weeks
Protocol: Stimulatory effect of newly prepared derivatives was tested using cytokinin-dependent tobacco callus. The cytokinin-dependent tobacco callus Nicotiana tabacum L. cv. Wisconsin 38 was maintained at 25° C. in darkness on modified MS medium, containing per 1 liter: 4 μmol of nicotinic acid, 2.4 μmol of pyridoxine hydrochloride, 1.2 μmol of thiamine, 26.6 μmol of glycine, 1.37 μmol of glutamine, 1.8 μmol of myo-inositol, 30 g of sucrose, 8 g of agar, 5.37 μmol of NAA and 0.5 μmol of the compound tested. Subcultivation was carried out every three weeks. Fourteen days before the bioassay, the callus tissue was transferred to the media without 6-benzylaminopurine. The biological activity was determined from the increase of the fresh callus weight after four weeks of cultivation. Five replicates were prepared for each concentration of the compound tested and the entire test was repeated twice. […] The compounds to be tested were dissolved in dimethylsulfoxide (DMSO) and the solution brought up to 10^−3M with distilled water. This stock solution was further diluted with the respective media used for the biotest to a concentration ranging from 10^−8M to 10^−4M.
From the obtained data, the concentration with the highest activity was selected for each compound tested. Relative activity of the compound at this concentration was calculated (Table 3). The activity obtained for 10^−6 M of the control substance 6-benzylaminopurine was postulated as 100% biological activity. […]

AHK3 = biological target: T1, AHK3 (Arabidopsis thaliana, UniProt Q9C5U1); test: Activation of cytokinin receptor AHK3 in E. coli KMI001 (β-galactosidase reporter); conditions: E. coli KMI001 pSTV28-AHK3, 28 h incubation, n.i. means without interaction
T1 construct: expressed in transfected cells; host or cells: Escherichia coli KMI001, plasmid pSTV28-AHK3
T1 sequence (Q9C5U1 1-1036): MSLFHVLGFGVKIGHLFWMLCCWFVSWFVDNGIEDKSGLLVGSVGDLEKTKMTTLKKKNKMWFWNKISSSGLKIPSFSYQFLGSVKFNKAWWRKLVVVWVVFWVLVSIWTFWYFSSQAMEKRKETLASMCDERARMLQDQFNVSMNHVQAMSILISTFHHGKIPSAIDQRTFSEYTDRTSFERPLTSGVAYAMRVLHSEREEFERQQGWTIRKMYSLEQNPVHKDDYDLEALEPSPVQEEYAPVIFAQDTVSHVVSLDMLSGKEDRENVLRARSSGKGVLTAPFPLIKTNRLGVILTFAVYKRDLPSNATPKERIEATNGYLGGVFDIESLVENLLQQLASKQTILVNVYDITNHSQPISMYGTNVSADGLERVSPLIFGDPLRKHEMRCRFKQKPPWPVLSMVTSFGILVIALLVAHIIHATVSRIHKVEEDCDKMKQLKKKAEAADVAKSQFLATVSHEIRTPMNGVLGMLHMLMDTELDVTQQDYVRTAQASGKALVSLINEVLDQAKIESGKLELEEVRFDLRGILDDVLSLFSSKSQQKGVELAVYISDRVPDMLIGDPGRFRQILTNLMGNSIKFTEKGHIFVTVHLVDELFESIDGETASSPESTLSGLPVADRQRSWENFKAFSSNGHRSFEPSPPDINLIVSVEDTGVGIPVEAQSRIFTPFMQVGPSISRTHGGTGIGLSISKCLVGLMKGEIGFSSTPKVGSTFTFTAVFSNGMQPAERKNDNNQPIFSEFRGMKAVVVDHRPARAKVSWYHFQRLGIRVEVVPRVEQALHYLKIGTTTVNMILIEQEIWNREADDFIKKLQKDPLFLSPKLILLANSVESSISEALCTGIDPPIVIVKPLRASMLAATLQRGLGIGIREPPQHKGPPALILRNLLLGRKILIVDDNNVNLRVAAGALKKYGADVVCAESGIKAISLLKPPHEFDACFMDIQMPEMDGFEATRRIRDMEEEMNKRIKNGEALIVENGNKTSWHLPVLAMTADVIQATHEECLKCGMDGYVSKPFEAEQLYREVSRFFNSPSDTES
Protocol: (§1) Escherichia coli strains KMI001 harbouring the plasmid pIN-III-AHK4 or pSTV28-AHK3 were grown overnight at 25° C. in M9 media enriched with 0.1% casamino acids to OD600˜1. The preculture was diluted 1:600 in 1 ml M9 medium containing 0.1% casamino acids and 1 μl stock solution of either the tested compound (10^−7 M−5×10^−5 M) or solvent control (DMSO, ethanol, methanol) were added. The cultures were further grown at 25° C. in microtiter plate, 200 μl per well. […] The cultures were centrifuged and 50 μl aliquots of the supernatant were transferred to microtiter plate containing 2 μl 50 mM 4-methyl umbelliferyl galactoside which was subsequently incubated for 1 h at 37° C. The reaction was stopped by adding 100 μl 0.2 M Na2CO3. Fluorescence was measured using a Fluoroscan Ascent (Labsystems, Finland) at the excitation and emission wavelengths of 365 and 460 nm, respectively. The OD600 of remaining culture was determined and β-galactosidase activity was calculated as nmol 4-methylumbelliferone×OD600^−1×h^−1.
(§2) The EC50 value, the compound concentration activating the receptor to 50%, was calculated from the obtained dose response curves. The compound functioning as cytokinin antagonists should not activate cytokinin signalling pathway. The values shown in Table 2 are means of three replicates and the entire test was repeated at least twice.

CRE1/AHK4 = biological target: T2, CRE1/AHK4 (Arabidopsis thaliana, UniProt Q9C5U0); test: Activation of cytokinin receptor CRE1/AHK4 in E. coli KMI001 (β-galactosidase reporter); conditions: E. coli KMI001 pIN-III-AHK4, 17 h incubation; n.i. means without interaction
T2 construct: expressed in transfected cells; host or cells: Escherichia coli KMI001, plasmid pIN-III-AHK4
T2 sequence (Q9C5U0 whole entry): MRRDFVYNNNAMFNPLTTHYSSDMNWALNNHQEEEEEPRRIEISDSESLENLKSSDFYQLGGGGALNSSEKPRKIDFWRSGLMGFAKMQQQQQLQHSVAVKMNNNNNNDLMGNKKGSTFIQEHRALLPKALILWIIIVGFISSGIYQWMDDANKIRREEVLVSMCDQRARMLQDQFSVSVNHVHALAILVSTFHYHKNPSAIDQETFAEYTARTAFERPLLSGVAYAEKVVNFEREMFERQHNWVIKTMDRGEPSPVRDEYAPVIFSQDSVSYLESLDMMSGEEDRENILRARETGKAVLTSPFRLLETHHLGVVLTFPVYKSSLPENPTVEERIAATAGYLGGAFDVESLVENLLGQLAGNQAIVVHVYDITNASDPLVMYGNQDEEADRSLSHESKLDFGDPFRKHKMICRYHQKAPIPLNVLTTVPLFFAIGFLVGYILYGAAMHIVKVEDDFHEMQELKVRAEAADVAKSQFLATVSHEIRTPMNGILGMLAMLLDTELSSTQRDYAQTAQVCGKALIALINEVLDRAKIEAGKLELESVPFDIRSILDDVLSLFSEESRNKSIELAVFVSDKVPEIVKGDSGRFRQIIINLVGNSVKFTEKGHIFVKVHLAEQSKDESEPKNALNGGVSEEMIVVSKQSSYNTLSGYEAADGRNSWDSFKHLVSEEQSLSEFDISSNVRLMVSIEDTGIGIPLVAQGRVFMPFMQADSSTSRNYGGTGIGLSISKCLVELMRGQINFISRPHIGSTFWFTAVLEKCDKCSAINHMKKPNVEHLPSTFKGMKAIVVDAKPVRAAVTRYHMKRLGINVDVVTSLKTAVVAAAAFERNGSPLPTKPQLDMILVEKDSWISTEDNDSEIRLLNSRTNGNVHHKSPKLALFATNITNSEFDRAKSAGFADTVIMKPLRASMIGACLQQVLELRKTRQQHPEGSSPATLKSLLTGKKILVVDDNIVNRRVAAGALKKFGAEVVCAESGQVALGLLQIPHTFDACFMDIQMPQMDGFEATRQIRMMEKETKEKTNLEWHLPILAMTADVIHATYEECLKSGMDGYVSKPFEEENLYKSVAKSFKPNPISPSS
Protocol: as §1, §2

| EC50 AHK3 (activation of cytokinin receptor) (AHK3) | EC50 CRE1/AHK4 (activation of cytokinin receptor) (CRE1/AHK4) | EC50 (AHK3; read-out: EC50 AHK3 (activation of cytokinin receptor)) [µM] | Molecule | activity (%) [10^−6 mol · l^−1 BA = 100%] [1] | concentration with highest activity [1] |
| --- | --- | --- | --- | --- | --- |
| n.i | n.i. |  | 6-(2-thio-5-methylbenzylamino)purine [Compound 19] | 1.3 (±1) % | 10^−4 mol.l^−1 |
| n.i | n.i. |  | Cc1cccc(CNc2ncnc3nc[nH]c23)c1N [Compound 1, 6-(2-amino-3-methylbenzylamino)purine] |  |  |
| n.i | n.i. |  | Cc1ccc(CNc2ncnc3nc[nH]c23)c(N)c1 [Compound 2, 6-(2-amino-4-methylbenzylamino)purine] |  |  |
| n.i | n.i. |  | Cc1ccc(N)c(CNc2ncnc3nc[nH]c23)c1 [Compound 3, 6-(2-amino-5-methylbenzylamino)purine] |  |  |
| n.i | n.i. |  | CCc1cccc(CNc2ncnc3nc[nH]c23)c1N [Compound 4, 6-(2-amino-3-ethylbenzylamino)purine] |  |  |
| n.i | n.i. |  | CCc1ccc(N)c(CNc2ncnc3nc[nH]c23)c1 [Compound 5, 6-(2-amino-5-ethylbenzylamino)purine] |  |  |
| n.i | n.i. |  | Cc1ccc(CNc2ncnc3nc[nH]c23)c(O)c1 [Compound 9, 6-(2-hydroxy-4-methylbenzylamino)purine] |  |  |
| n.i | n.i. |  | Cc1cccc(O)c1CNc1ncnc2nc[nH]c12 [Compound 11, 6-(2-hydroxy-6-methylbenzylamino)purine] | 23 (±5) % | 10^−4 mol.l^−1 |
| n.i | n.i. |  | CCc1cccc(CNc2ncnc3nc[nH]c23)c1O [Compound 12, 6-(2-hydroxy-3-ethylbenzylamino)purine] |  |  |
| n.i | n.i. |  | CCc1ccc(O)c(CNc2ncnc3nc[nH]c23)c1 [Compound 13, 6-(2-hydroxy-5-ethylbenzylamino)purine] |  |  |
|  | n.i. | > 100 | Cc1cccc(CNc2ncnc3nc[nH]c23)c1[N+](=O)[O-] [Compound 15, 6-(2-nitro-3-methylbenzylamino)purine] |  |  |
| n.i | n.i. |  | Cc1ccc([N+](=O)[O-])c(CNc2ncnc3nc[nH]c23)c1 [Compound 16, 6-(2-nitro-5-methylbenzylamino)purine] |  |  |
| n.i | n.i. |  | CCc1cccc(CNc2ncnc3nc[nH]c23)c1[N+](=O)[O-] [Compound 17, 6-(2-nitro-3-ethylbenzylamino)purine] |  |  |
| n.i | n.i. |  | Cc1cc(C)c(N)c(CNc2ncnc3nc[nH]c23)c1 [Compound 21, 6-(2-amino-3,5-dimethylbenzylamino)purine] |  |  |
| n.i | n.i. |  | Cc1cc(C)c(O)c(CNc2ncnc3nc[nH]c23)c1 [Compound 23, 6-(2-hydroxy-3,5-dimethylbenzylamino)purine] |  |  |
| n.i | n.i. |  | Cc1ccc(CNc2ncnc3nc[nH]c23)c(O)c1C [Compound 24, 6-(2-hydroxy-3,4-dimethylbenzylamino)purine] |  |  |
